Reference: ChEMBL document CHEMBL5154804, “Species-Selective Targeting of Fungal Hsp90: Design, Synthesis, and Evaluation of Novel 4,5-Diarylisoxazole Derivatives for the Combination Treatment of Azole-Resistant Candidiasis” (J Med Chem, 2022)
The source made the active and inactive calls. The calls are words filed in the database; no cut-off is given here.

Key:
Candida albicans [1] = assay: Potentiation of fluconazole-induced antifungal activity against fluconazole-resistant Candida albicans 632 assessed as fluconazole MIC by checker board microdilution assay; type: functional
Candida albicans [2] = assay: Synergistic antifungal activity against fluconazole-resistant Candida albicans 311 assessed as inhibition of fungal growth in presence of fluconazole by checker board microdilution assay; type: functional
[3] = Metabolic stability in human liver microsomes assessed as intrinsic clearance in presence of NADPH cofactor under shaking condition for 10 mins measured after 5 to 60 mins by LC-MS/MS analysis; type: ADME, Microsome; settings: time 15-70 min
Candida albicans [4] = assay: Potentiation of fluconazole-induced antifungal activity against fluconazole-resistant Candida albicans 100 assessed as fluconazole MIC by checker board microdilution assay; type: functional
CYP2C19 = CYP2C19 (Homo sapiens, UniProt P33261); assay: Inhibition of CYP2C19 in human liver microsome at 10 uM using S-mephenytoin as substrate incubated for 10 mins in presence of NADPH cofactor by LC-MS/MS analysis; type: ADME; settings: liver microsomes, probe S-mephenytoin
Candida albicans [5] = assay: Antifungal activity against fluconazole-resistant Candida albicans 632 assessed as inhibition of fungal growth by checker board microdilution assay; type: functional
[6] = Metabolic stability in human liver microsomes assessed as microsomal intrinsic clearance in presence of NADPH cofactor under shaking condition for 10 mins measured after 5 to 60 mins by LC-MS/MS analysis; type: ADME, Microsome; settings: time 15-70 min
Candida albicans [7] = assay: Synergistic antibiofilm activity in Candida albicans 904 assessed as downregulation of ALS3 at 32 ug/ml incubated for 24 hrs in presence of fluconazole by RT-PCR analysis; type: functional, organism-based; settings: dose 32.0 µg/ml
[8] = Metabolic stability in human liver microsomes assessed as half life in presence of NADPH cofactor under shaking condition for 10 mins measured after 5 to 60 mins by LC-MS/MS analysis; type: ADME, Microsome; settings: time 15-70 min
HepG2 = assay: Cytotoxicity against human HepG2 cell assessed as inhibition of cell growth after 24 hrs by MTT assay; type: functional, cell-based; settings: HepG2, 24 h
Candida albicans [9] = assay: Potentiation of fluconazole-induced antifungal activity against fluconazole-resistant Candida albicans 311 assessed as fluconazole MIC by checker board microdilution assay; type: functional
[10] = Metabolic stability in human liver microsomes assessed as compound remaining in presence of NADPH cofactor under shaking condition for 10 mins measured after 60 mins by LC-MS/MS analysis; type: ADME, Microsome; settings: time 70 min, read-out: Stability
CYP3A4 [11] = target: T1, CYP3A4 (Homo sapiens, UniProt P08684); assay: Inhibition of CYP3A4 in human liver microsome at 10 uM using midazolam as substrate incubated for 10 mins in presence of NADPH cofactor by LC-MS/MS analysis; type: ADME; settings: liver microsomes, probe midazolam
[12] = Stability in human plasma assessed as compound remaining at 120 mins by LC-MS/MS analysis; type: ADME, cell-free; settings: read-out: Stability
Candida albicans [13] = assay: Antibiofilm activity against Candida albicans 904 assessed as inhibition of […] metabolism within the biofilm after 48 hrs by XTT reduction assay; type: functional
Candida albicans [14] = assay: Fungicidal activity against Candida albicans 904 assessed as colony forming at 4 times MIC incubated for 48 hrs by time-kill curve assay; type: functional
[15] = Cytotoxicity against human BEAS-2B cell assessed as inhibition of cell growth after 24 hrs by MTT assay; type: toxicity, cell-based; settings: BEAS-2B cells
Candida albicans [16] = assay: Synergetic antifungal activity against fluconazole-resistant Candida albicans 904 assessed as fractional inhibitory concentration index in presence of fluconazole by checker board microdilution assay; type: functional
A549 = assay: Cytotoxicity against human A549 cell assessed as inhibition of cell growth after 24 hrs by MTT assay; type: functional, cell-based; settings: A549, 24 h
RAW264.7 = assay: Cytotoxicity against mouse RAW264.7 cell assessed as inhibition of cell growth after 24 hrs by MTT assay; type: functional, cell-based; settings: RAW264.7, 24 h
Candida albicans [17] = assay: Synergistic antifungal activity against fluconazole-resistant Candida albicans 901 assessed as inhibition of fungal growth in presence of fluconazole by checker board microdilution assay; type: functional
Candida albicans [18] = assay: Synergistic antibiofilm activity against Candida albicans 904 assessed as inhibition of […] metabolism within the biofilm in presence of fluconazole after 48 hrs by XTT reduction assay; type: functional
Rattus norvegicus = assay: In vivo antifungal activity against azole resistant Candida albicans 904 infected in rat assessed as colonization of fungal cells at 10 mg/kg, ip administered for 5 days, qd by PAS and HE staining based microscopy; type: functional, organism-based; settings: time 5.0 day
CYP3A4 [19] = target: T1, CYP3A4; assay: Inhibition of CYP3A4 in human liver microsome at 10 uM using midazolam as substrate incubated for 10 mins in presence of NADPH cofactor and fluconazole by LC-MS/MS analysis; type: ADME; settings: liver microsomes, probe midazolam
[20] = Half life in Sprague-Dawley rat at 10 mg/kg, iv measured upto 24 hrs by LC/MS/MS analysis; type: ADME, organism-based; settings: in vivo
Candida albicans [21] = assay: Reversal of fluconazole mediated azole resistance Candida albicans 904 assessed as downregulation of CDR2 at 32 ug/ml in presence of fluconazole by RT-PCR; type: functional, organism-based; settings: dose 32.0 µg/ml
[22] = Cmax in Sprague-Dawley rat at 10 mg/kg, iv measured up to 24 hrs by LC/MS/MS analysis; type: ADME, organism-based; parameters: dose 10 mg/kg, time < 24 hrs, route iv; settings: in vivo
[23] = Stability in rat plasma assessed as half life at 120 mins by LC-MS/MS analysis; type: ADME, cell-free
Candida albicans [24] = assay: Reversal of fluconazole mediated azole resistance Candida albicans 904 assessed as downregulation of ERG11 at 32 ug/ml in presence of fluconazole by RT-PCR; type: functional, organism-based; settings: dose 32.0 µg/ml
[25] = Stability in rat plasma assessed as compound remaining at 120 mins by LC-MS/MS analysis; type: ADME, cell-free; settings: read-out: Stability
[26] = Clearance in Sprague-Dawley rat at 10 mg/kg, iv measured upto 24 hrs by LC/MS/MS analysis; type: ADME, organism-based; settings: in vivo
[27] = AUC (0 to infinity) in Sprague-Dawley rat at 10 mg/kg, iv measured at upto 24 hrs by LC/MS/MS analysis; type: ADME, organism-based; parameters: dose 10 mg/kg, time < 24 hrs, route iv; settings: in vivo
Candida albicans [28] = assay: Reversal of fluconazole mediated azole resistance Candida albicans 904 assessed as downregulation of CDR1 at 32 ug/ml in presence of fluconazole by RT-PCR; type: functional, organism-based; settings: dose 32.0 µg/ml
[29] = Metabolic stability in rat liver microsomes assessed as microsomal intrinsic clearance in presence of NADPH cofactor under shaking condition for 10 mins measured after 5 to 60 mins by LC-MS/MS analysis; type: ADME, Microsome; settings: time 15-70 min
[30] = Metabolic stability in rat liver microsomes assessed as compound remaining in presence of NADPH cofactor under shaking condition for 10 mins measured after 60 mins by LC-MS/MS analysis; type: ADME, Microsome; settings: time 70 min, read-out: Stability

T1 sequence (P08684 whole entry): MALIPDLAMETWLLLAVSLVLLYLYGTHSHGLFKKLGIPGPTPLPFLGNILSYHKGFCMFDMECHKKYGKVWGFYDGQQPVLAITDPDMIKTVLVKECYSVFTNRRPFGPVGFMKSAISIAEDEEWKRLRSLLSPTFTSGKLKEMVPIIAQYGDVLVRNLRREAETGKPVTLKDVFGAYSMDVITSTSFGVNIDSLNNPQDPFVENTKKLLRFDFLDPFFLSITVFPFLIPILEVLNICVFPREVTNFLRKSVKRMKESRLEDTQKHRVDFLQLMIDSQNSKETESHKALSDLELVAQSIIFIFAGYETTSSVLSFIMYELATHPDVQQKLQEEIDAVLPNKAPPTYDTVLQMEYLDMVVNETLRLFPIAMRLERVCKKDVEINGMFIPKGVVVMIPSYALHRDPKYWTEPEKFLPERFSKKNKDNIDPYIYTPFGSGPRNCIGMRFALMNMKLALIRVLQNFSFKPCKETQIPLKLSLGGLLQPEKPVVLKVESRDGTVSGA
CYP2C19, sequence (P33261 whole entry): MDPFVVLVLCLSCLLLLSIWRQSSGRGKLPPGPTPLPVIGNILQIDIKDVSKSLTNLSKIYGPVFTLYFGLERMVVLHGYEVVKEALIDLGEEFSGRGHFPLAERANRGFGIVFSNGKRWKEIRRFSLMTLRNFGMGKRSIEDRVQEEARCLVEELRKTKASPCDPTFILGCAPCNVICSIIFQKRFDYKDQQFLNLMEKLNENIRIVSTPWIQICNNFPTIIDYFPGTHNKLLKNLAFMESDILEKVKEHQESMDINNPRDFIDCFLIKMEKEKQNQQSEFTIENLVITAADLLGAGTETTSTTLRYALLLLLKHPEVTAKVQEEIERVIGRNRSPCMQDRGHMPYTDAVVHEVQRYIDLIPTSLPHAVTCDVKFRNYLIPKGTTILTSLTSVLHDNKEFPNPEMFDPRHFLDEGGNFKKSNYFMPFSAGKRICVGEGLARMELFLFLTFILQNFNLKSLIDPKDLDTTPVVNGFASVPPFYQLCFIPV

Q: What does the source list for `CNC(=O)c1noc(-c2cc(-c3ccc(C)cc3)c(O)cc2O)c1-c1ccc(CN2CCOCC2)cc1`?
A: MIC80 (Candida albicans [1]): 0.5 µg/mL; MIC80 (Candida albicans [2]): 2 µg/mL; CLint [3]: 50.3 mL/min/kg; MIC80 (Candida albicans [4]): 2 µg/mL; inhibition at 10 min, 10 µM (CYP2C19): 18.6%; MIC80 (Candida albicans [5]): > 64 µg/mL; CLint [6]: 55.9 µL/min/mg; Activity (Candida albicans [7]): Active; half-life [8]: 24.8 min; IC50 (HepG2): > 50 µM; MIC80 (Candida albicans [9]): 2 µg/mL; remaining at 1.167 h [10]: 19.1%; inhibition at 10 min, 10 µM (CYP3A4 [11]): 43.2%; remaining at 2 h [12]: 92.8%; MIC50 (Candida albicans [13]): > 64 µg/mL; MFC (Candida albicans [14]): > 64 µg/mL; IC50 at 24 h [15]: 12.2 µM; fractional inhibitory concentration index (FICI) (Candida albicans [16]): 0.02; IC50 (A549): 7.12 µM; IC50 (RAW264.7): 11.3 µM; MIC80 (Candida albicans [17]): 0.5 µg/mL; MIC50 (Candida albicans [18]): 4 µg/mL

Q: What does the source list for `CCNC(=O)c1noc(-c2cc(-c3ccc(C)cc3)c(O)cc2O)c1-c1ccc(CN2CCOCC2)cc1`?
A: MIC80 (Candida albicans [1]): 2 µg/mL; MIC80 (Candida albicans [2]): 0.25 µg/mL; CLint [3]: 38.9 mL/min/kg; Activity (Rattus norvegicus): Active; MIC80 (Candida albicans [4]): 2 µg/mL; inhibition at 10 min, 10 µM (CYP2C19): 22.2%; MIC80 (Candida albicans [5]): > 64 µg/mL; CLint [6]: 43.2 µL/min/mg; Activity (Candida albicans [7]): Active; half-life [8]: 32.1 min; inhibition at 10 min, 10 µM (CYP3A4 [19]): 39.3%; IC50 (HepG2): 17.4 µM; half-life [20]: 75.6 min; MIC80 (Candida albicans [9]): 2 µg/mL; Activity (Candida albicans [21]): Active; remaining at 1.167 h [10]: 27.4%; Cmax [22]: 3440 ng/mL; half-life [23]: > 288 min; inhibition at 10 min, 10 µM (CYP3A4 [11]): 36.7%; Activity (Candida albicans [24]): Active; remaining at 2 h [12]: 110%; MIC50 (Candida albicans [13]): > 64 µg/mL; MFC (Candida albicans [14]): > 64 µg/mL; remaining at 2 h [25]: 99.4%; IC50 at 24 h [15]: > 50 µM; clearance [26]: 102 mL/min/kg; AUC(0-inf) [27]: 3030 ng·h/mL; Activity (Candida albicans [28]): Active; fractional inhibitory concentration index (FICI) (Candida albicans [16]): 0.035; IC50 (A549): 13.1 µM; IC50 (RAW264.7): 17.1 µM; CLint [29]: 45.3 µL/min/mg; MIC80 (Candida albicans [17]): 0.125 µg/mL; MIC50 (Candida albicans [18]): 1 µg/mL; remaining at 1.167 h [30]: 23.6%
